{"source": "ChEMBL document CHEMBL1201862", "about": "“PubChem BioAssay data set” (2004)", "key": {"[1]": {"target": "Homeodomain-interacting protein kinase 2 (Homo sapiens, UniProt Q9H2X6)", "sequence (Q9H2X6 whole entry)": "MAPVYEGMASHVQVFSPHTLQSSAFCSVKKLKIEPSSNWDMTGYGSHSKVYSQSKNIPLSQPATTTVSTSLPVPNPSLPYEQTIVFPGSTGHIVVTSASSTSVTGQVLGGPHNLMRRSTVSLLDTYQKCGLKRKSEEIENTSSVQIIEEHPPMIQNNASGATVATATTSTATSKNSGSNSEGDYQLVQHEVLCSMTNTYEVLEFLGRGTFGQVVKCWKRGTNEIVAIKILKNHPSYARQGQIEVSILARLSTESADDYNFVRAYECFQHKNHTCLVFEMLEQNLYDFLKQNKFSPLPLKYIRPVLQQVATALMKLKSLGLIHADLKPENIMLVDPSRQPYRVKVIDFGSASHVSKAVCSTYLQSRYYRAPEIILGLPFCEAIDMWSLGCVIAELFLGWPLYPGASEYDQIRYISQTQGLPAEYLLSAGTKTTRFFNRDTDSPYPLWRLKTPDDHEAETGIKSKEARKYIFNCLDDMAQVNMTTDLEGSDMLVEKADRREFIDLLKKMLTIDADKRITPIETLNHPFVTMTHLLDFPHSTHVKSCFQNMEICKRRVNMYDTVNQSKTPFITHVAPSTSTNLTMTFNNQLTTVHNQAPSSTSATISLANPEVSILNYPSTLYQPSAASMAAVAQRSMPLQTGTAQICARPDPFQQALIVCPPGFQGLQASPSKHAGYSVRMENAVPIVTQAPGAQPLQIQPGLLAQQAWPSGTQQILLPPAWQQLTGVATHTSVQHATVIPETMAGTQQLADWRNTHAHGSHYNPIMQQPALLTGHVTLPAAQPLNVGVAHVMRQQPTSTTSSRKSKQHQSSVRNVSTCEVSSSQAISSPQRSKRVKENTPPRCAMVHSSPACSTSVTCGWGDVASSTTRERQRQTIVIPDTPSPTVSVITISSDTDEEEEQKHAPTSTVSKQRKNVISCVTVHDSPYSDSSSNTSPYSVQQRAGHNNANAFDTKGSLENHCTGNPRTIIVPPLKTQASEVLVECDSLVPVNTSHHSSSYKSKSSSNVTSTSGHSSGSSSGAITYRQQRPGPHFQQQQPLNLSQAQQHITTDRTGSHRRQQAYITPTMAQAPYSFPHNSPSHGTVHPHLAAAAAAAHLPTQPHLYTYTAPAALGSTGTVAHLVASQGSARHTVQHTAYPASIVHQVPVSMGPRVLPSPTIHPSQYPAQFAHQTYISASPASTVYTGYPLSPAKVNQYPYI", "assay_type": "functional"}, "[2]": {"target": "Mitogen-activated protein kinase kinase kinase kinase 4 (Homo sapiens, UniProt O95819)", "sequence (O95819 whole entry)": "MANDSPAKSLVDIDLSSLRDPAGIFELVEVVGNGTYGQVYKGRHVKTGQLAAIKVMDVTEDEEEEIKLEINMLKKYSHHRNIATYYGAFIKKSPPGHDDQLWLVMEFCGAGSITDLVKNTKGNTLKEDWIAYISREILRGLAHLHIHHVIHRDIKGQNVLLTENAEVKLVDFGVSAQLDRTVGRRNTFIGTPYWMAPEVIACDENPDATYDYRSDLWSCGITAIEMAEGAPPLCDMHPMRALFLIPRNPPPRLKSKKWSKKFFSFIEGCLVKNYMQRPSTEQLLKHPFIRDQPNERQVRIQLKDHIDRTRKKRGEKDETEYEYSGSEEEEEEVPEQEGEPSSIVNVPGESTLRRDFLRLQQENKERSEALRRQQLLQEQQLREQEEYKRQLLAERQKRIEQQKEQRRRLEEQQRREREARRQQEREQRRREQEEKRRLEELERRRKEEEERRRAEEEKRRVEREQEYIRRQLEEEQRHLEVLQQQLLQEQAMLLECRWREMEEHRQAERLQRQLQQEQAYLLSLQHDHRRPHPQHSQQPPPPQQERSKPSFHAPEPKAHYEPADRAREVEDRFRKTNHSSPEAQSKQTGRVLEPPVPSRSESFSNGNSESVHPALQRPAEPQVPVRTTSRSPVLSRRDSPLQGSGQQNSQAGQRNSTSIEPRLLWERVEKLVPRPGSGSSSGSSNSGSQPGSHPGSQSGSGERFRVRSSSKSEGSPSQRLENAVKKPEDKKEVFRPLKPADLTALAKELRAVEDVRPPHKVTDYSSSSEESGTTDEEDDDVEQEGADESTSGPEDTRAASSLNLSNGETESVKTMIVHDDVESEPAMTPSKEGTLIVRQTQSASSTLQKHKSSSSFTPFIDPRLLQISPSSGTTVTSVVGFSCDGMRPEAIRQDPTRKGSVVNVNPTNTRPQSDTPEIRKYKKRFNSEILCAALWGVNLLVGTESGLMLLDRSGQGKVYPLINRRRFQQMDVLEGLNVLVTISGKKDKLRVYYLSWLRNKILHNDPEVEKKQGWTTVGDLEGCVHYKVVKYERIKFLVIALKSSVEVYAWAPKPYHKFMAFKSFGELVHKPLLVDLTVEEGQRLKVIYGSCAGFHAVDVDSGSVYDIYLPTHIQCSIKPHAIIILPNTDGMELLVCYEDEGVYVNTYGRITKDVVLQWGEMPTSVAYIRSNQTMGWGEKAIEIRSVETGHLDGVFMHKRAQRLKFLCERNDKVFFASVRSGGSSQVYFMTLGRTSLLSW", "assay_type": "functional"}, "[3]": {"target": "Dual specificity protein kinase CLK4 (Homo sapiens, UniProt Q9HAZ1)", "sequence (Q9HAZ1 whole entry)": "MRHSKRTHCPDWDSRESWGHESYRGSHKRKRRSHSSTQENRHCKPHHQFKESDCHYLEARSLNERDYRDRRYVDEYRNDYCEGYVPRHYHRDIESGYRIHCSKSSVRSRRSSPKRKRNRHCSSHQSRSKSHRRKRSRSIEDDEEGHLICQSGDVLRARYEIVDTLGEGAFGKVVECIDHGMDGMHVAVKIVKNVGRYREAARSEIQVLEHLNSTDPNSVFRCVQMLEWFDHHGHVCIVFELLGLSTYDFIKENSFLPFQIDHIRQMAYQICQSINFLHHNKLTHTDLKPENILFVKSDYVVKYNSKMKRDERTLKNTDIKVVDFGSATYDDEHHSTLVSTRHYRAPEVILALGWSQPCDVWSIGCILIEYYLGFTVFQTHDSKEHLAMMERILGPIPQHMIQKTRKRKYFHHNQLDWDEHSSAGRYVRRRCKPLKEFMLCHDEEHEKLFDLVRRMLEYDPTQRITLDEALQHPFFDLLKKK", "assay_type": "functional"}, "[4]": {"target": "Cell division cycle 7-related protein kinase (Homo sapiens, UniProt O00311)", "sequence (O00311 whole entry)": "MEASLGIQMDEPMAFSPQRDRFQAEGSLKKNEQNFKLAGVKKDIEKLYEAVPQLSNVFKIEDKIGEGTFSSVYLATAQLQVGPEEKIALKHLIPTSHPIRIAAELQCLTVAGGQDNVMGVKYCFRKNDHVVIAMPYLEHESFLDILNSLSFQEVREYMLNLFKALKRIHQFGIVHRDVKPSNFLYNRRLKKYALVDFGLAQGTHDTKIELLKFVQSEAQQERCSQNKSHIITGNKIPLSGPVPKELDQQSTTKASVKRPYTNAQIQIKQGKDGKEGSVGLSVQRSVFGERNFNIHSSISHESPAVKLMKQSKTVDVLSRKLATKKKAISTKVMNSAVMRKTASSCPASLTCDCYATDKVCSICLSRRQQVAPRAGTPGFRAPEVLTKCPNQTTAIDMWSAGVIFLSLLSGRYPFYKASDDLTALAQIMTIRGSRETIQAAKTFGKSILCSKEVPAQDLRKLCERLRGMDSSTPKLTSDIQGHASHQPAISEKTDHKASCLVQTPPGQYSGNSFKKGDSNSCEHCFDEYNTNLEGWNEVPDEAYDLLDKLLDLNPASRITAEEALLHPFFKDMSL", "assay_type": "functional"}, "[5]": {"target": "T1, Interleukin-1 receptor-associated kinase 4 (Homo sapiens, UniProt Q9NWZ3)", "T1 sequence (Q9NWZ3 whole entry)": "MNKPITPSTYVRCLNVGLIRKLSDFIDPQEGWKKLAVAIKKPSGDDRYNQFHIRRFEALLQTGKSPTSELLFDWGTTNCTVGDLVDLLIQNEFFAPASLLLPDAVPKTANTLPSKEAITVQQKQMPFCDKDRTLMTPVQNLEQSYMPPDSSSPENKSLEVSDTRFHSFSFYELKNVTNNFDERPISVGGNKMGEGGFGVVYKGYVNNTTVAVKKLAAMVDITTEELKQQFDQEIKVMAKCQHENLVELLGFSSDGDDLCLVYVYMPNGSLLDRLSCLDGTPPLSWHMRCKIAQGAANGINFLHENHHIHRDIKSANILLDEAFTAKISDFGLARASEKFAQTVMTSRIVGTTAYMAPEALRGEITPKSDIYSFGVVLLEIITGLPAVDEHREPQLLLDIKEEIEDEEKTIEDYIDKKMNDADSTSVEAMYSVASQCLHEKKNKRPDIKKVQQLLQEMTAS", "assay_type": "functional"}, "[6]": {"target": "Serine/threonine-protein kinase pim-1 (Homo sapiens, UniProt P11309)", "sequence (P11309 whole entry)": "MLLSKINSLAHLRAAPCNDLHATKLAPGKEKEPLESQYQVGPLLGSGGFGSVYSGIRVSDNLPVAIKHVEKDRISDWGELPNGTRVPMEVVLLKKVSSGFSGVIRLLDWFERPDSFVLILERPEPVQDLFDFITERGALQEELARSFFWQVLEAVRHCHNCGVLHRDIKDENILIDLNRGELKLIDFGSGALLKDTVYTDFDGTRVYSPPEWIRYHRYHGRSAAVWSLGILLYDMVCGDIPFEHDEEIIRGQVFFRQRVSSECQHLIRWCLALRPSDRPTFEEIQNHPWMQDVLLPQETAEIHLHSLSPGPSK", "assay_type": "functional"}, "[7]": {"target": "Cyclin-dependent kinase 2 (Homo sapiens, UniProt P24941)", "assay_type": "functional"}, "[8]": {"target": "cAMP-dependent protein kinase catalytic subunit alpha (Homo sapiens, UniProt P17612)", "assay_type": "functional"}, "[9]": {"target": "Glycogen synthase kinase-3 beta (Homo sapiens, UniProt P49841)", "sequence (P49841 whole entry)": "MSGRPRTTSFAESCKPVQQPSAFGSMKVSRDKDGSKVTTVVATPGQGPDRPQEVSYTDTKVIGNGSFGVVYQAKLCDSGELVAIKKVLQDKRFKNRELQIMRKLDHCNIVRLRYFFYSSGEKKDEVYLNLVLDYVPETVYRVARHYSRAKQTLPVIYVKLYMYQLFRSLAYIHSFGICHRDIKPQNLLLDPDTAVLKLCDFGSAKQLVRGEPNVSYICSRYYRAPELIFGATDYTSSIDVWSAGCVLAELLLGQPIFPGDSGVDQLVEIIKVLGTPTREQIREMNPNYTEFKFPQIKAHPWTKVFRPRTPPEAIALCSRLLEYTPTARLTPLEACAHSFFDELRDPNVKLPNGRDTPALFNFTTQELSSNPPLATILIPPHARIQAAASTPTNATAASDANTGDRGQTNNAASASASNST", "assay_type": "functional"}, "[10]": {"target": "G protein-coupled receptor kinase 5 (Homo sapiens, UniProt P34947)", "experiment": "Navigating the Kinome. Panel member name: GPRK5", "assay_type": "functional"}, "[11]": {"target": "Cyclin-dependent kinase 8 (Homo sapiens, UniProt P49336)", "experiment": "Navigating the Kinome. Panel member name: CDK8", "assay_type": "functional"}, "[12]": {"target": "T2, DNA dC->dU-editing enzyme APOBEC-3G (Homo sapiens, UniProt Q9HC16)", "T2 sequence (Q9HC16 whole entry)": "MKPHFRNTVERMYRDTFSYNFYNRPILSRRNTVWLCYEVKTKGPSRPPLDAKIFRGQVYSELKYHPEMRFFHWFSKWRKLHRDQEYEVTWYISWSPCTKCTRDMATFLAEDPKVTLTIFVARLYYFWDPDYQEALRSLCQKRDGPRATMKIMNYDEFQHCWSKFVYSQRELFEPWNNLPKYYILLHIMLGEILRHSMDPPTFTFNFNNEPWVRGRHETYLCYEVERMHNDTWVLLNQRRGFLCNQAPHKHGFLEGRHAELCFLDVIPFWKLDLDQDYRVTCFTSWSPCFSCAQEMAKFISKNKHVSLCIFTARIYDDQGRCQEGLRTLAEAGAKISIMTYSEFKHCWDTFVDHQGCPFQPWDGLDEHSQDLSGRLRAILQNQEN", "assay_type": "functional"}, "[13]": {"target": "T3, DNA dC->dU-editing enzyme APOBEC-3A (Homo sapiens, UniProt P31941)", "T3 sequence (P31941 whole entry)": "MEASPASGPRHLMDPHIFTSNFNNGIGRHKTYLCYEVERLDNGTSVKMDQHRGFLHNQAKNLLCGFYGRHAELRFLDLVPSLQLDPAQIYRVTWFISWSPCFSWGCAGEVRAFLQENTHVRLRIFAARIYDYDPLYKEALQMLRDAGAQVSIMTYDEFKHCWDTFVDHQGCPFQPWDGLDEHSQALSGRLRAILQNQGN", "experiment": "SAR analysis of small molecule inhibitors of APOBEC3A DNA Deaminase via a fluorescence-based single-stranded DNA deaminase assay - Set 2.", "assay_type": "functional", "details": "read-out: IC50_Mean"}, "Estrogen receptor beta": {"target": "Estrogen receptor beta (Homo sapiens, UniProt Q92731)", "experiment": "blockers of SRC-3 recruitment to ERβ – biochemical, ELISA, streptavidin-HRP readout, orthogonal assay, confirmation (AID 1060)"}, "[14]": {"target": "T3, DNA dC->dU-editing enzyme APOBEC-3A", "experiment": "SAR analysis of small molecule inhibitors of APOBEC3A DNA Deaminase via a fluorescence-based single-stranded DNA deaminase assay.", "assay_type": "functional", "details": "read-out: IC50_Mean"}, "[15]": {"target": "T2, DNA dC->dU-editing enzyme APOBEC-3G", "experiment": "SAR analysis of small molecule inhibitors of APOBEC3G DNA Deaminase via a fluorescence-based single-stranded DNA deaminase assay - Set 2.", "assay_type": "functional", "details": "read-out: IC50_Mean"}, "[16]": {"target": "Low molecular weight phosphotyrosine protein phosphatase (Homo sapiens, UniProt P24666)", "sequence (P24666 whole entry)": "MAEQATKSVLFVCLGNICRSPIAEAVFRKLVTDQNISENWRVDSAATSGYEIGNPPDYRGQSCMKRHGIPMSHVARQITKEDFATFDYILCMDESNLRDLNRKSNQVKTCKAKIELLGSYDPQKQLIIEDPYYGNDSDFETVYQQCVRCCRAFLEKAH", "assay_type": "functional", "details": "read-out: IC50_Mean"}, "[17]": {"target": "T2, DNA dC->dU-editing enzyme APOBEC-3G", "experiment": "inhibition of APOBEC3G ssDNA deamination – biochemical, fluorescence, single-stranded DNA substrate, SAR follow-up (AID 602136)", "assay_type": "functional", "details": "read-out: IC50_Mean"}, "[18]": {"target": "T3, DNA dC->dU-editing enzyme APOBEC-3A", "experiment": "Dose Response confirmation of small molecule APOBEC3A DNA Deaminase Inhibitors via a fluorescence-based single-stranded DNA deaminase assay. [Related pubchem assays (depositor defined):AID493011, AID493024]", "assay_type": "functional"}, "[19]": {"target": "MAP kinase-interacting serine/threonine-protein kinase 2 (Homo sapiens, UniProt Q9HBH9)", "assay_type": "functional"}, "[20]": {"target": "Sphingosine 1-phosphate receptor 3 (Homo sapiens, UniProt Q99500)", "experiment": "Late-stage fluorescence-based dose-response cell-based counterscreen assay to identify agonists of the Sphingosine 1-Phosphate Receptor 4 (S1P4): Sphingosine 1-Phosphate Receptor 3 (S1P3) agonist assay Set 2.", "assay_type": "functional"}, "[21]": {"target": "Sphingosine 1-phosphate receptor 1 (Homo sapiens, UniProt P21453)", "experiment": "Late-stage fluorescence-based dose-response cell-based counterscreen assay to identify agonists of the Sphingosine 1-Phosphate Receptor 4 (S1P4): Sphingosine 1-Phosphate Receptor 1 (S1P1) agonist assay Set 2.", "assay_type": "functional"}, "[22]": {"target": "Sphingosine 1-phosphate receptor 5 (Homo sapiens, UniProt Q9H228)", "experiment": "activation of human S1P5 receptor – cell-based, fluorescence, set 2, counter-screen for S1P4 agonist project, late-stage follow-up (AID 504867)", "assay_type": "functional"}, "[23]": {"target": "Sphingosine 1-phosphate receptor 2 (Homo sapiens, UniProt O95136)", "experiment": "activation of human S1P2 receptor – cell-based, fluorescence, set 2, counter-screen for S1P4 agonist project, late-stage follow-up (AID 504873)", "assay_type": "functional"}, "[24]": {"target": "Melanin-concentrating hormone receptor 1 (Homo sapiens, UniProt Q99705)", "experiment": "Late-stage fluorescence-based counterscreen for antagonists of the G-protein coupled receptor 7 (GPR7): cell-based dose response assay to identify antagonists of the melanin-concentrating hormone receptor 1 (MCHR1) Set 6.", "assay_type": "functional"}, "[25]": {"target": "T4, Neuropeptides B/W receptor type 1 (Homo sapiens, UniProt P48145)", "T4 sequence (P48145 whole entry)": "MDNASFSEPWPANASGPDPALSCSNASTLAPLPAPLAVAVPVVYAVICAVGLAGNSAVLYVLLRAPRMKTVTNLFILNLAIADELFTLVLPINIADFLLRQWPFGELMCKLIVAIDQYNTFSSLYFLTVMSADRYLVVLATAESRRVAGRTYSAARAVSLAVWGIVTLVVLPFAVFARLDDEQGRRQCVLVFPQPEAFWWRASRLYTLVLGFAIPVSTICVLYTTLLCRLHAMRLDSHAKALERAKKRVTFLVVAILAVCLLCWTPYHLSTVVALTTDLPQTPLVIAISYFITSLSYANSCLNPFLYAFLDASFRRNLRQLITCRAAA", "experiment": "human NPBW1 receptor blockade, IC50 – cell-based, fluorescence, dose response, set 6, late-stage follow-up (AID 588583)", "assay_type": "functional"}, "[26]": {"target": "T5, High affinity choline transporter 1 (Homo sapiens, UniProt Q9GZV3)", "T5 sequence (Q9GZV3 whole entry)": "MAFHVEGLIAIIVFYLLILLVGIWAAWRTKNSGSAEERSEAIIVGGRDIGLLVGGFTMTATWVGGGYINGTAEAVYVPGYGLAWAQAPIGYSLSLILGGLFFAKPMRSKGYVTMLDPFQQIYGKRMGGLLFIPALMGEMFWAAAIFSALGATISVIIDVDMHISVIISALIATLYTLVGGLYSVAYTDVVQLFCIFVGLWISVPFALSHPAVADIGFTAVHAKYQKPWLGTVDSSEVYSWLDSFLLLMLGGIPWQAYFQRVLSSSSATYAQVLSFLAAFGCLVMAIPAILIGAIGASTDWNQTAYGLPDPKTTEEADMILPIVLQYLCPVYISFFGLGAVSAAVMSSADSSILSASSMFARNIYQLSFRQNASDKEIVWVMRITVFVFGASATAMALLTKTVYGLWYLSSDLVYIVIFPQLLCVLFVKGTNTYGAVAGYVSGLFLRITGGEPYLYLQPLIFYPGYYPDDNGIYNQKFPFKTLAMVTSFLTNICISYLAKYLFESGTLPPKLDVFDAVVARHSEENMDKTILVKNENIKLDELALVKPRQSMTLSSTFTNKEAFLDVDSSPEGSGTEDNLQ", "experiment": "human choline transporter potentiators, potency – cell-based, 10-point CRC, membrane potential dye, dose response (AID 602376)", "assay_type": "functional"}, "[27]": {"experiment": "Vero cell cytotoxicity, cytotoxicity control for M. tuberculosis inhibitor project, purified and synthesized samples, set 3 (AID 504684)", "assay_type": "functional", "details": "[…]"}, "[28]": {"experiment": "A Cell Based Secondary Assay to Explore Cytotoxicity in HepG2 Cells of Compounds that Modulate Mycobacterium tuberculosis in Media Containing Glycerol versus Media without Glycerol (2).", "assay_type": "functional"}}, "note": "The source made the active and inactive calls.", "data": [{"smiles": "CCOC(=O)c1c[nH]n2c(=O)cc(-c3ccncc3)nc12", "values": [{"measurement": "Ki", "setting": "[1]", "result": "0.0501 µM (active)"}, {"measurement": "Ki", "setting": "[2]", "result": "> 10 µM (inactive)"}, {"measurement": "Ki", "setting": "[3]", "result": "0.0251 µM (active)"}, {"measurement": "Ki", "setting": "[4]", "result": "0.00501 µM (active)"}, {"measurement": "Ki", "setting": "[5]", "result": "> 10 µM (inactive)"}, {"measurement": "Ki", "setting": "[6]", "result": "3.16 µM (active)"}, {"measurement": "Ki", "setting": "[7]", "result": "> 7.94 µM (inactive)"}, {"measurement": "Ki", "setting": "[8]", "result": "> 7.94 µM (inactive)"}, {"measurement": "Ki", "setting": "[9]", "result": "0.316 µM (active)"}]}, {"smiles": "Cc1cc(C)cc(NC(=O)NC2=NN(c3ccccc3)C(=O)C2)c1", "values": [{"measurement": "Ki", "setting": "[10]", "result": "3.98 µM (active)"}, {"measurement": "Ki", "setting": "[11]", "result": "3.16 µM (active)"}]}, {"smiles": "O=C(NCc1ccc2c(c1)OCO2)c1cc2ncc(Br)cn2n1", "values": [{"measurement": "IC50", "setting": "[12]", "result": "56.5 µM (active)"}, {"measurement": "IC50", "setting": "[13]", "result": "21.1 µM (inactive)"}, {"measurement": "IC50", "setting": "Estrogen receptor beta", "result": "0.363 µM (not active)"}, {"measurement": "IC50", "setting": "[14]", "result": "20.3 µM (inactive)"}, {"measurement": "IC50", "setting": "[15]", "result": "73.1 µM (inactive)"}, {"measurement": "IC50", "setting": "[16]", "result": "37.4 µM (inactive)"}, {"measurement": "IC50", "setting": "[17]", "result": "35 µM (inactive)"}, {"measurement": "IC50", "setting": "[18]", "result": "9.82 µM (active)"}]}, {"smiles": "O=C1Nc2ccccc2Nc2cc(-c3ccncc3Cl)ccc21", "values": [{"measurement": "Ki", "setting": "[1]", "result": "1.26 µM (active)"}, {"measurement": "Ki", "setting": "[2]", "result": "0.794 µM (active)"}, {"measurement": "Ki", "setting": "[3]", "result": "0.0631 µM (active)"}, {"measurement": "Ki", "setting": "[4]", "result": "0.02 µM (active)"}, {"measurement": "Ki", "setting": "[5]", "result": "1 µM (active)"}, {"measurement": "Ki", "setting": "[6]", "result": "> 10 µM (inactive)"}, {"measurement": "Ki", "setting": "[8]", "result": "0.794 µM (active)"}, {"measurement": "Ki", "setting": "[19]", "result": "0.2 µM (active)"}, {"measurement": "Ki", "setting": "[9]", "result": "0.251 µM (active)"}]}, {"smiles": "C/N=C1/SC(=Cc2cc(C)n(Cc3ccc(F)cc3F)c2C)C(=O)N1C", "values": [{"measurement": "EC50", "setting": "[20]", "result": "> 25 µM (inactive)"}, {"measurement": "EC50", "setting": "[21]", "result": "0.287 µM (active)"}, {"measurement": "EC50", "setting": "[22]", "result": "0.0371 µM (active)"}, {"measurement": "EC50", "setting": "[23]", "result": "13.1 µM (inactive)"}]}, {"smiles": "N#CC(c1c(Cl)cnn(Cc2cccc3ccccc23)c1=O)c1coc2ccccc12", "note": "(configuration not stated)", "values": [{"measurement": "IC50", "setting": "[24]", "result": "0.294 µM (active)"}, {"measurement": "IC50", "setting": "[25]", "result": "0.294 µM (active)"}]}, {"smiles": "O=C1N(Cc2cccc(Cl)c2)C[C@@H]2C[C@@H](c3cccn3-c3ccccn3)N3CCC[C@@]123", "values": [{"measurement": "EC50", "setting": "[26]", "result": "8.22 µM (active)"}]}, {"smiles": "O=C(/C=C\\c1cccs1)N1CCN(Cc2ccc3c(c2)OCO3)CC1", "values": [{"measurement": "CC50", "setting": "[27]", "result": "> 100 µM (active)"}, {"measurement": "CC50", "setting": "[28]", "result": "> 50 µM (active)"}]}]}
